By Ki is commonly meant a measure of affinity in units of concentration, obtained from inhibition or displacement. Usually inhibition stands for the share of the control response that was lost under treatment. What is called EC50 is the concentration needed to bring the measured effect to its halfway point. By Emax is commonly meant the greatest response seen or fitted, relative to the assay's reference.

The values that follow come from PMC3896271 (Beilstein Journal of Organic Chemistry, 2013).

SMILES strings stand for the structures. Values joined by “and” are separate entries in the source; they are usually repeats but may differ in a detail not shown here. Identical values can stand only once. Some results are limits rather than exact numbers.

The target of experiment [1] is T1, human κ-OR (Homo sapiens, UniProt P41145).
T1 construct: expressed in transfected cells; host or cells: CHO cells, stably transfected; membranes
The experiment is described as follows: Competitive inhibition of [3H]diprenorphine binding to CHO-κ-OR membranes. Conditions: for Ki: displacement of [3H]diprenorphine from CHO cell membranes expressing human κ-OR, n = 3, in duplicate, read-out: Ki ± SEM.

Another experiment has as its target T2, rat μ opioid receptor (Rattus norvegicus, UniProt P33535).
T2 construct: expressed in transfected cells; host or cells: CHO cells, stably transfected; membranes
Kind of experiment: biochemical. The experiment is classed as binding.

The next experiment addresses T3, mouse δ opioid receptor (Mus musculus, UniProt P32300).
T3 construct: expressed in transfected cells; host or cells: CHO cells, stably transfected; membranes
The experiment is described as follows: biochemical. The experiment is classed as binding.

A further experiment has as its system T4, κ-OR (CHO-hκ-OR).
T4 construct: expressed in transfected cells; host or cells: CHO cells, stably transfected; membranes
The experiment is described as follows: Antagonism of dynorphin A (10 nM) at κ-OR in the [35S]GTPγS assay. It counts as biochemical, human. Particulars: for [35S]GTPγS binding (% increase over basal), single experiments / [35S]GTPγS binding (% increase over basal), Mean: antagonist 3 μM; for [35S]GTPγS binding (% increase over basal), single experiments: without antagonist 130 and 296; for [35S]GTPγS binding (% increase over basal), Mean: without antagonist mean 213.

The target of experiment [2] is T1, human κ-OR. Kind of experiment: biochemical.
The test system of another experiment is κ-OR. Set-up: method as in doi:10.1007/978-1-59745-197-0_6. Conditions: cited from earlier work.

Turning to `COC(=O)C1CC(OC(C)=O)C(=O)C2C1(C)CCC1C(=O)OC(c3ccoc3CN(C)C)CC12C` (stereo not drawn) [compound 2], the Ki on human κ-OR [1] was greater than 1000 nM. The “affinity for µ-OR (in words)” value on rat μ opioid receptor was “no affinity”. Besides, on mouse δ opioid receptor, the “affinity for δ-OR (in words)” value is recorded as “no affinity”. Besides, in the experiment with κ-OR (CHO-hκ-OR), the “[35S]GTPγS binding (% increase over basal), single experiments” value was 182 % increase over basal and 319 % increase over basal; the “[35S]GTPγS binding (% increase over basal), Mean” value worked out at 251 % increase over basal.

`COC(=O)C1CC(OC(C)=O)C(=O)C2C1(C)CCC1C(=O)OC(c3coc(CN(C)C)c3)CC12C` (stereo not drawn) [compound 3]: the inhibition constant (Ki) on human κ-OR [1] was greater than 1000 nM. Moreover, the “affinity for µ-OR (in words)” value at rat μ opioid receptor was “no affinity”. In addition, the “affinity for δ-OR (in words)” value on mouse δ opioid receptor is “no affinity”. In the experiment with κ-OR (CHO-hκ-OR), the “[35S]GTPγS binding (% increase over basal), single experiments” value is 146 % increase over basal and 270 % increase over basal; the “[35S]GTPγS binding (% increase over basal), Mean” value is listed as 208 % increase over basal.

With `COC(=O)C1CC(OC(C)=O)C(=O)C2C1(C)CCC1C(=O)OC(c3ccoc3CO)CC12C` (stereo not drawn) [compound 4], the inhibition at 3 µM at human κ-OR [1] (3 µM, κ-OR, read-out: inhibition (displacement) of [3H]diprenorphine binding, initial screening) is no less than 50%. In addition, the Ki at human κ-OR [1] amounted to 110 ± 10 nM. At human κ-OR [2], this molecule had a concentration giving a half-maximal response (EC50) of 345 ± 47 nM and an Emax of 103%. Further, in the experiment with κ-OR (CHO-hκ-OR), the “[35S]GTPγS binding (% increase over basal), single experiments” value was 249 % increase over basal and 415 % increase over basal; the “[35S]GTPγS binding (% increase over basal), Mean” value was 332 % increase over basal.

For the molecule `CC(C)[C@@H](CN1CC[C@@](C)(c2cccc(O)c2)[C@@H](C)C1)NC(=O)[C@H]1Cc2ccc(O)cc2CN1` [JDTic, reference compound], in the experiment on κ-OR (CHO-hκ-OR), the “[35S]GTPγS binding (% increase over basal), Mean” value is reported as 0 % increase over basal. Further, the “antagonism of dynorphin A (in words)” value in the experiment on κ-OR (CHO-hκ-OR) (primary screen at 3 μM) was “abolished response to dynorphin A”. For the same molecule, the Ke in the experiment with κ-OR was less than 40 pM.

Consider `COC(=O)C1CC(OCOCCO)C(=O)C2C1(C)CCC1C(=O)OC(c3ccoc3)CC12C` (stereo not drawn) [compound 6], for which the inhibition constant (Ki) is 12.7 ± 1.3 nM on human κ-OR [1], greater than 1000 nM on rat μ opioid receptor and greater than 1000 nM at mouse δ opioid receptor.

Regarding `COC(=O)C1CC(OC(C)=O)C(=O)C2C1(C)CCC1C(=O)OC(c3cc(CO)oc3CO)CC12C` (stereo not drawn) [compound 5], the inhibition constant (Ki) on human κ-OR [1] was greater than 1000 nM. The “affinity for µ-OR (in words)” value on rat μ opioid receptor is listed as “no affinity”. On mouse δ opioid receptor, the “affinity for δ-OR (in words)” value was “no affinity”. Besides, in the experiment with κ-OR (CHO-hκ-OR), the “[35S]GTPγS binding (% increase over basal), single experiments” value was 175 % increase over basal and 278 % increase over basal; the “[35S]GTPγS binding (% increase over basal), Mean” value was determined as 226 % increase over basal.
